As a reminder, the inhibition is the change of the read-out against control, counted positive when it falls. High values mean a strong effect, low ones a weak effect. Usually Km stands for the substrate concentration at which the rate is half of its maximum.

These results are taken from patent publication US20090158455A1, “COMPOSITIONS AND METHODS FOR MODULATING LYSINE PRODUCTION” (priority 2005, published 2009).

Series [1] deals with maize LL-DAP transaminase. Nature of the series: Inhibitors of LL-DAP transaminase, ortho aminobenzaldehyde assay. Type of series: biochemical, maize (Zea mays). The following applies: substrate LL-DAP 0.5 mM. The method, then:
(§1) For enzyme assays of crude proteins, extracts were prepared by grinding tissue in liquid nitrogen with 100 mM HEPESKOH (pH 7.6), followed by centrifugation at 10,000 g for 15 min, and then buffer exchange using an Amicon Ultra 30,000 MWCO filter. […] Reactions were incubated at 30° C. and the ΔA (440 nm) measured continuously. […] The reaction was incubated at 30° C., and the decrease in A340 was measured. […] The reaction was run to completion, determined by monitoring the increase in A340. […] The kinetic constants were calculated by nonlinear regression analysis using GraphPad Prizm version 4.03.
(§2) Assays for assessing the ability of certain compounds to inhibit LL-DAP aminotransferase have been performed and the results are shown below in Table V. The reactions were performed as described above.

Series [2] addresses A. thaliana LL-DAP transaminase (Arabidopsis thaliana, UniProt Q93ZN9). Nature of the series: Inhibitors of LL-DAP transaminase, m-DAP dehydrogenase coupled assay. The following applies: inhibitor 40 mM, substrate LL-DAP 0.05 mM. Format: biochemical. The method, then:
as §1, §2

For series [3], the target named is T1, CT390 (Chlamydia trachomatis serovar D, UniProt O84395).
T1 construct: His-Tag (N); made in house; host or cells: E. coli
Nature of the series: Quantitative reverse assay of pure CT390. Type of series: biochemical. The following applies: for Km: reverse assay, apparent Km; for Use as amino donor by CT390: reverse direction.

For series [4], the target named is Methanothermobacter thermautotrophicus LL-DAP transaminase MTH52 (Methanothermobacter thermautotrophicus, UniProt O26158). Nature of the series: Quantitative forward and reverse assays of purified LL-DAP transaminases (Example III). As to conditions: reverse assay.
Protocol: This plasmid was transformed into E. coli BL21-CodonPlus®-RIPL for expression and purification of the recombinant protein.
For protein expression the E. coli strains were grown on LB at 37° C. to an OD600 nm of 0.5 and protein expression was then induced with 1 mM IPTG for 4 hr at 25° C. Cells were lysed by sonication in a solution of 50 mM sodium phosphate and 300 mM NaCl (pH 8.0). Metabolites in the extract were removed by buffer exchange using an Amicon Ultra 30,000 MWCO ultrafilter and sodium phosphate/NaCl buffer, and the concentrated soluble protein sample was used for measurement of enzyme activity as an initial assessment of enzyme function. When the recombinant protein was to be purified a larger cell culture was grown and lysed as described above, but the buffer exchange step was not carried out. […] The pure protein was then concentrated in an Amicon Ultra 30,000 MWCO ultrafilter, replacing the elution buffer with 100 mM HepesKOH, pH 7.6.
Series [5] has as its target T1, CT390. Kind of series: Quantitative forward assay of pure CT390. Type of series: biochemical. The following applies: apparent Km. The method, then:
All enzyme assays were carried out essentially as described in Example I. Incubation temperature was 30° C. Kinetic constants were determined by varying substrate concentrations while keeping the co-substrate level constant at the concentration described below. Kinetic data were analyzed by non-linear regression analysis using GraphPad Prizm Version 4.03.
Quantitative assay of the physiologically forward reaction was carried out sequentially in a pre-reaction to generate THDP from m-DAP followed by an LL-DAP aminotransferase assay. […] The pre-reaction was run to completion, monitored by the increase in absorbance at 340 nm resulting from NADPH formation. The aminotransferase reaction was monitored at 398 nm to measure the formation of thioNADH. […] Subsequently, the aminotransferase assay was initiated by addition of CT390, bringing the total reaction volume to 1 mL.

For series [6], the target named is Arabidopsis thaliana LL-DAP-AT (At4g33680), wild type, recombinant (lacks first 39 amino acids, hexa-His and S-TAG), SEQ ID NO: 7 (Arabidopsis thaliana, UniProt Q93ZN9). Nature of the series: Quantitative coupled reverse and forward assays of pure recombinant LL-DAP-AT (Table III). Format: biochemical. Here is the method: as §1
For this reason quantitative coupled assays were developed to assess the enzyme activity in both the reverse and forward directions. […] The reaction sequence is shown in Scheme 1.
The overall reaction series is shown in Scheme 2.
Thio-NADH has an absorbance maximum at 398 nm, which can be discerned from NADPH, which has an absorbance maximum at 340 nm. FIG. 4 illustrates such a reaction. […] Two plots are shown using 0.55 and 0.055 mM m-DAP.

In another series the target is T2, Arabidopsis LL-DAP-AT (Arabidopsis thaliana, UniProt Q93ZN9).
T2 construct: The protein extract was prepared from Arabidopsis leaves by grinding in liquid nitrogen; from tissue; host or cells: Arabidopsis leaves / axenically grown plants, crude soluble extract
Nature of the series: OAB assay of LL-DAP-AT activity in Arabidopsis leaf extract. Type of series: biochemical. As to conditions: added at 1,000-fold excess over LL-DAP; data not shown. Here is the method:
FIGS. 2A and 2B. LL-DAP-AT activity in Arabidopsis. […] The reaction was incubated at 30° C. The protein extract was prepared from Arabidopsis leaves by grinding in liquid nitrogen with 100 mM HEPESKOH (pH 7.6), centrifugation at 10,000 g for 15 min, and buffer exchange using an Amicon Ultra 30,000 MWCO filter.
as §1
The rate of the reaction was directly proportional to the amount of protein extract added (FIG. 2B). […] If the extract was heated in a boiling water bath for 5 min, the activity was completely destroyed. […] Moreover, since the source material was axenically grown, the activity must have been derived from the Arabidopsis rather than a contaminating microorganism.

Another series addresses AGD2 protein (At4g33680) (Arabidopsis thaliana, UniProt Q93ZN9). As to conditions: transamination of Lys, Song et al. (2004); cited from earlier work.
Series [7] deals with LL-DAP transaminase. Nature of the series: Quantitative reverse assay of purified microbial LL-DAP transaminases. Format: biochemical. As to conditions: reverse. The method, then:
(§3) Enzyme assays were performed as described above in Examples I and II.
(§4) The catalytic properties of sll0480, BF2643, Dhaf—3980, MTH52, and SfumDRAFT0821 were studied in greater detail using purified enzymes to determine their kinetic constants using quantitative forward and reverse assays.

Series [8] has as its system LL-DAP transaminase. Nature of the series: Quantitative forward assay of purified microbial LL-DAP transaminases. Type of series: biochemical. The method, then: as §3, §4
Series [9] concerns the target T3, LL-DAP transaminase (Synechocystis sp., UniProt Q55828).
T3 construct: His-Tag; made in house; host or cells: E. coli BL21-CodonPlus-RIPL
Nature of the series: Quantitative reverse assay of purified microbial LL-DAP transaminases. Type of series: biochemical. As to conditions: keto acids (5 mM) substituted for 2-oxoglutarate in reverse and for THDPA in forward reaction. Here is the method:
as §3, §4

Chain of Arabidopsis thaliana LL-DAP-AT (At4g33680), wild type, recombinant (lacks first 39 amino acids, hexa-His and S-TAG), SEQ ID NO: 7 (Q93ZN9 40-461): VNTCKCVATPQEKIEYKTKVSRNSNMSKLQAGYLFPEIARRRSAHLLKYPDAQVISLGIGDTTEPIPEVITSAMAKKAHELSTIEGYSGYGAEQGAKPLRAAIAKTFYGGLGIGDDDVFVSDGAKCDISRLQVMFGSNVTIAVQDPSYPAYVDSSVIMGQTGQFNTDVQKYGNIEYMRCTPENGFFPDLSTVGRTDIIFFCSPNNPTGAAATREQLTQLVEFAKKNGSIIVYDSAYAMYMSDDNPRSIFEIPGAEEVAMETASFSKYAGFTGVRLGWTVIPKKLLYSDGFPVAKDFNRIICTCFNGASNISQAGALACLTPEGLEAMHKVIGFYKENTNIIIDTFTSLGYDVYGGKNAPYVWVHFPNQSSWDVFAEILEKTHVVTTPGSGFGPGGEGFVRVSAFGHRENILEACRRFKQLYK
T1 sequence (O84395 whole entry): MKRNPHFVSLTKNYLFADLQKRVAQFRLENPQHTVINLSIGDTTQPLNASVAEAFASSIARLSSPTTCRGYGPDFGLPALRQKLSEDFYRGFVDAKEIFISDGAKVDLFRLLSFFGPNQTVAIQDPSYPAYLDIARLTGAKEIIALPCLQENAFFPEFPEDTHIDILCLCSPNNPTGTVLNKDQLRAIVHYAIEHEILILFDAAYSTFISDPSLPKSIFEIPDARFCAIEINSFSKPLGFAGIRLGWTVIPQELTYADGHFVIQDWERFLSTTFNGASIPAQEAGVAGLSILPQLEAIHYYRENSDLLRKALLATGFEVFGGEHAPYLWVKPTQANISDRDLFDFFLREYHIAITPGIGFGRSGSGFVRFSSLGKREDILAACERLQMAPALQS
T2 sequence (Q93ZN9 46-461): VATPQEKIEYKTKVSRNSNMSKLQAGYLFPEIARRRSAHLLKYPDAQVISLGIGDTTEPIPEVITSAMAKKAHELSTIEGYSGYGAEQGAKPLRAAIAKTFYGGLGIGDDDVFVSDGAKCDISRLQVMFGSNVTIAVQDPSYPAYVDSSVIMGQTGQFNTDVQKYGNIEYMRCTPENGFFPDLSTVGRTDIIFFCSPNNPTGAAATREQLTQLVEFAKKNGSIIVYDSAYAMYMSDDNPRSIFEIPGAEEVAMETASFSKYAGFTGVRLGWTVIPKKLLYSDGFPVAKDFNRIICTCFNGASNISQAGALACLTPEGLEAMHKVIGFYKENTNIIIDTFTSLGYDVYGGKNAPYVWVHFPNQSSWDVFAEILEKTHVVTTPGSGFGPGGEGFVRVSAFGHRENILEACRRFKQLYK
Chain of AGD2 protein (At4g33680) (Q93ZN9 46-461): as above
Chain of A. thaliana LL-DAP transaminase (Q93ZN9 40-461): as the sequence (Q93ZN9 40-461) above
T3 sequence (Q55828 whole entry): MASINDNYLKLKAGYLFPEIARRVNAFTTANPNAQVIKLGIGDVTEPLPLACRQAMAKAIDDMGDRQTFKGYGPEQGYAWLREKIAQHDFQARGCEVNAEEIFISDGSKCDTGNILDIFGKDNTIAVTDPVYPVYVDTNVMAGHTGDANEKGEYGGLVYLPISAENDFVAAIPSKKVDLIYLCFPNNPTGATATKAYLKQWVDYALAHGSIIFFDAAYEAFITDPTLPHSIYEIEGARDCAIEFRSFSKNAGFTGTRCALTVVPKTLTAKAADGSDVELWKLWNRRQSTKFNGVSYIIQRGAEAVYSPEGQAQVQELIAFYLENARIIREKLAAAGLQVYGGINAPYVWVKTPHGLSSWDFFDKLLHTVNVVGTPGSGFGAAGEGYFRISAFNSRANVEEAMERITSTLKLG
Chain of Methanothermobacter thermautotrophicus LL-DAP transaminase MTH52 (O26158 whole entry): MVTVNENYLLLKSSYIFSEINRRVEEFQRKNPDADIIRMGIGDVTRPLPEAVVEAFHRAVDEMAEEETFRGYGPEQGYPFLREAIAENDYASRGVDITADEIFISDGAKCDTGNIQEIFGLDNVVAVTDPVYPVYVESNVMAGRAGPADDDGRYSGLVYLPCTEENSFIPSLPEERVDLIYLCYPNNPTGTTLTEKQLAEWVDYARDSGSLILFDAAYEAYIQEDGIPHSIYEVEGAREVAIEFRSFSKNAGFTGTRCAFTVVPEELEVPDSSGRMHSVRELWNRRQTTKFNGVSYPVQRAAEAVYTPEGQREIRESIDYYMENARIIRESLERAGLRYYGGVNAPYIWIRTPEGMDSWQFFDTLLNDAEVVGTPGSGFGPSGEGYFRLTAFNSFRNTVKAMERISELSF

For the molecule `NC(CCCCC(=O)O)C(=O)O` (racemic) [L, D-α-aminopimelate], the Inhibition % was 50+ % in series [1] (inhibitor 5 mM) and 83+ % in series [1] (inhibitor 10 mM).

Take `NC(CCC(O)C(N)C(=O)O)C(=O)O` (racemic) [Threo-β-hydroxy DAP (racemic), Threo-β-hydroxy DAP]: the inhibition at 40000 µM in series [2] worked out at 68%.

Take `O=C(O)CCC(=O)C(=O)O` [2-OG, 2-oxoglutarate, reference compound]: the Km at CT390 [3] was 650 µM.

Consider `O=C(O)CCC(=O)C(=O)O` [2-OG, 2-oxoglutarate], for which the Km in series [4] was 800 µM.

As for `N[C@@H](CCC(=O)O)C(=O)O` [Glu, glutamate, reference compound], the Km on CT390 [5] was 1000 µM.

`N[C@@H](CCC[C@H](N)C(=O)O)C(=O)O` [LL-DAP, LL-2,6-diaminopimelate]: the Michaelis constant (Km) at CT390 [3] is 20 µM. Moreover, the “Km for LL-DAP lower than the value for Lys” value in series [6] (compared with Km of 58.8 mM for Lys of Song et al. (2004)) turned out to be 830 fold. Besides, the Kcat in [6] (reverse assay, pH 7.5, 30° C.) came to 17.6 s⁻¹.

Take `NCCCC[C@H](N)C(=O)O` [Lys, lysine]: the “Inhibition of the use of LL-DAP (LL-DAP-AT activity)” value on Arabidopsis LL-DAP-AT is reported as “did not inhibit”. Moreover, the Km at AGD2 protein (At4g33680) was 58800 µM. The “Use as amino donor by CT390” value on CT390 [3] is “unable to use”.

`O=C(O)C1=N[C@H](C(=O)O)CCC1` [THDPA, L-2,3,4,5-tetrahydrodipicolinate]: in series [6] (forward assay, pH 7.5), the Kcat was found to be 0.3 s⁻¹. The Km at CT390 [5] is 200 µM.

Take `N[C@@H](CCSC[C@H](N)C(=O)O)C(=O)O` [cystathionine]: the “Use as amino donor by CT390” value on CT390 [3] is on record as “unable to use”.

On to `NC(CCCC(N)C(=O)O)C(=O)O` (centres unmarked) [m-DAP, m-2,6-diaminopimelate], for which the “Inhibition of the use of LL-DAP (LL-DAP-AT activity)” value at Arabidopsis LL-DAP-AT was “did not inhibit”. The “Use as amino donor by CT390” value on CT390 [3] is “able to use”.

For the molecule “Mth52: LL-DAP transaminase from M. thermoautotrophicum”, in the series with LL-DAP transaminase [7] (read-out: Km 2-OG, substrate 2-OG), the Michaelis-Menten constant (Km) was 800 µM. Also, the “Vmax R” value with LL-DAP transaminase [7] was 4.7 µmol/min/mg. For the same molecule, the “Vmax F” value in the series with LL-DAP transaminase [8] came out at 0.6 µmol/min/mg.

Regarding “sII0480: LL-DAP transaminase from Synechocystis sp.”, the Keto acid specificity entry with LL-DAP transaminase [9] is on record as “active only with 2-oxoglutarate or THDPA”. Further, in the series on LL-DAP transaminase [7], the “Vmax R” value worked out at 3.3 µmol/min/mg. The “Vmax F” value in the series on LL-DAP transaminase [8] was found to be 0.25 µmol/min/mg.
